Row | melting point [°C] | Compound
1 | 202 to 204 | O=C(O)c1nn(-c2ccccc2F)cc1O
2 | 194 to 196 | Cn1cc(S(N)(=O)=O)c2ccccc21
3 | 219 to 221 | CCOC(=O)c1ccc(S(=O)(=O)N2CCC(C(=O)O)CC2)cc1
4 | 109 to 111 | O=C(O)c1c(Cl)cccc1Oc1ccc(Cl)cc1
5 | 263 to 265 | CNC(=O)c1ccc(C(=O)O)cn1
6 | 206 to 208 | Cc1[nH]c2c(C(=O)O)cccc2c1C
7 | 159 to 161 | O=C1C=C(Br)C(=O)N1c1ccccc1
8 | 148 to 150 | CS(=O)(=O)c1cc([N+](=O)[O-])c(Cl)s1
9 | 160 to 162 | CC(C)(C)OC(=O)Nc1ccc(CC(N)=S)cc1
10 | 155 to 157 | O=C(NCCO)c1ccc(O)cc1
11 | 157 to 159 | Cc1noc(C)c1COc1cccc(C(=O)O)c1
12 | 165 to 167 | CC(C)(NC(=O)Nc1ccccc1)C(=O)O
13 | 178 to 180 | O=C(O)c1nccnc1C(=O)Nc1ccc(Cl)cc1
14 | 127 to 129 | CCOc1ccc(OCc2ccc(C(=O)NN)cc2)cc1
15 | 142 to 144 | O=C(O)Cc1ccc(S(=O)(=O)CC(F)(F)F)cc1
16 | 49 to 51 | Cc1ccc(Cl)c(S(=O)(=O)Cl)c1
17 | 211 to 213 | Cc1cccc(N2CC(C(=O)O)CC2=O)c1C (stereo unspecified)
18 | 179 to 181 | O=C(O)c1ccc(Oc2ccc(F)cc2[N+](=O)[O-])cc1
19 | 234 to 236 | Nc1ccc(NC(=O)CCN2C(=O)CNC2=O)cc1
20 | 66 to 68 | CCOc1ccccc1OCCCC(=O)O
21 | 99 to 101 | N#Cc1cnc(Oc2ccccc2)cn1

Row | melting point [°C] | Compound
22 | 203 to 205 | Cc1ccc(NS(=O)(=O)c2cccc(C(=O)O)c2)cc1
23 | 145 to 147 | CN(c1ccc(OCC(=O)O)cc1)S(=O)(=O)c1cccs1
24 | 226 to 228 | CC(=O)Nc1cccc(C(=O)O)n1
25 | 224 to 226 | Nc1nnc(Cc2cccc3ccccc23)o1
26 | 174 to 176 | O=C(O)CCOc1ccc(-c2ccccc2)cc1
27 | 163 to 165 | COc1cc(C(C)=O)ccc1OCCCC(=O)O
28 | 242 to 244 | O=C(O)c1ccc(NS(=O)(=O)c2ccc(Cl)c([N+](=O)[O-])c2)cc1O
29 | 92 to 94 | O=C(c1ccc(F)cc1)c1cccnc1
30 | 139 to 141 | CCCOc1ccc2[nH]cc(C=O)c2c1
31 | 186 to 188 | CC(C)S(=O)(=O)c1ccc(C(=O)O)cc1
32 | 169 to 171 | CCC(=O)Nc1ccc(O)cc1
33 | 133 to 135 | O=C(O)c1cn(-c2ccccc2Cl)nn1
34 | 179 to 181 | Cc1cc(COc2ccc(C=O)cc2)oc1C(=O)O
35 | 142 to 144 | NS(=O)(=O)c1cccs1
36 | 154 to 156 | Nc1noc(COc2ccc(F)cc2)n1
37 | 279 to 281 | O=C(O)Cn1ccc(=O)[nH]c1=O
38 | 86 to 89 | CS(=O)(=O)c1nc2ccccc2s1
39 | 88 to 90 | Cc1cccc(Cn2[nH]ccc2=NC(=O)CCl)c1
40 | 160 to 162 | O=C(O)c1cnn(-c2ccccc2F)c1
41 | 159 to 161 | NS(=O)(=O)c1cccc(O)c1
42 | 84 to 88 | N#CCC(=O)c1ccc(F)cc1

Row | melting point [°C] | Compound
43 | 77 to 79 | CC(=O)c1nnn(-c2ccc(F)cc2)c1C
44 | 65 to 67 | O=C(O)CCCCCc1ccc(I)cc1
45 | 142 to 144 | O=C(O)c1ccc(Cl)cc1-n1cccc1
46 | 270 to 272 | O=C(O)c1cccc(Nc2ncccn2)c1
47 | 195 to 197 | Nc1nc(-c2ccc(Oc3ccccc3)cc2)cs1
48 | 154 to 156 | COc1cccc(-c2csc(=O)[nH]2)c1
49 | 155 to 157 | CN1C(=O)CC(C(=O)O)C1c1cccc(Cl)c1 (stereo unspecified)
50 | 179 to 181 | O=C(O)c1[nH]c2ccccc2c1Cl
51 | 157 to 159 | Cn1ccnc1SCc1cccc(C(=O)O)c1
52 | 169 to 171 | O=S(=O)(c1ccc(S)nc1)N1CCN(Cc2ccccc2)CC1
53 | 258 to 260 | O=C(O)C(Cc1ccccc1)NS(=O)(=O)c1ccccc1F (stereo unspecified)
54 | 211 to 213 | O=C(O)c1ccc(CCC(F)(F)F)cc1
55 | 91 to 93 | CCS(=O)(=O)c1cccc(F)c1N
56 | 91 to 93 | CC(=O)CC(=O)Nc1cccc(C)c1C
57 | 165 to 167 | Cc1ccc(-c2nc(-c3ccccc3)sc2CC(=O)O)cc1
58 | 192 to 194 | COc1ccc(S(=O)(=O)N(C)C)cc1N
59 | 196 to 198 | O=C(O)c1cccnc1OCCO
60 | 235 to 237 | Cc1c(-c2ccccc2)nc2ccccc2c1C(=O)O
61 | 82 to 84 | COc1c(F)ccc(F)c1C(=O)O
62 | 176 to 178 | O=C(Cc1nc2ccccc2[nH]1)NCc1ccccn1
63 | 132 to 134 | O=C(O)c1ccc(NC(=O)c2ccco2)cc1

Second part, the molecule before the results:

Row | Compound | melting point [°C]
64 | NC(=O)c1ccc2[nH]cc(C3CCNCC3)c2c1 | 149 to 151
65 | CCC(=O)c1c(C)nn(CCS(C)(=O)=O)c1C | 154 to 156
66 | Nc1cc(-c2cc3ccccc3o2)n[nH]1 | 124 to 126
67 | O=C(O)c1csc(C(=O)CCl)c1 | 147 to 149
68 | O=C(O)C=CC1CCOCC1 | 134 to 136
69 | Nc1ccc2nc(N3CCOCC3)sc2c1 | 166 to 168
70 | Cc1cc(C)nc(-n2cc(C(=O)O)c(C)n2)n1 | 287 to 289
71 | O=c1occc2cccnc12 | 157 to 159
72 | CC(C)(C)OC(=O)NC1CCCCCC1O (stereo unspecified) | 85 to 87
73 | CC1(C)C2CCC1(CS(=O)(=O)F)C(=O)C2 (stereo unspecified) | 79 to 81
74 | Cc1cc(C)c2c(N)c(C(=O)N3CCOCC3)sc2n1 | 147 to 149
75 | COc1cc(NC(=O)NN)c(OC)cc1Cl | 168 to 170
76 | Brc1ncnc2ccccc12 | 94 to 96
77 | Oc1ccc2c(O)ccnc2c1 | 207 to 209
78 | Oc1cccc(-c2nnc[nH]2)c1 | 192 to 194
79 | CC(N)C(O)c1ccc(F)cc1 (stereo unspecified) | 87 to 89
80 | Cc1ccc(NC(=O)C(C)Cl)cc1F (stereo unspecified) | 102 to 104
81 | Nc1cc(-c2ccc(Cl)cc2)no1 | 164 to 166
82 | Cc1ccccc1-n1cnnc1S | 144 to 146
83 | Nc1cc(N2CCCS2(=O)=O)ccc1Cl | 139 to 141
84 | CC1(C)CC(=O)c2ccccc2O1 | 87 to 89

Row | Compound | melting point [°C]
85 | CCNc1ncc(C(=O)O)s1 | 187 to 189
86 | CC1(C)CCc2sc(C(=O)O)cc2C1 | 138 to 140
87 | CCOc1cc2c(cc1/C=C/C(=O)O)OC(C)C2 (stereo unspecified) | 169 to 171
88 | N#CCc1ncc(C(F)(F)F)cc1Cl | 34 to 36
89 | O=C1CCCc2sccc21 | 38 to 40
90 | CCN1N=C(C)CC1=O | 107 to 109
91 | Cn1cc(N2CCCC(Br)C2=O)cn1 (stereo unspecified) | 121 to 123
92 | COc1cc(C)nc(CO)c1 | 69 to 71
93 | O=Cc1sc(=O)[nH]c1Cl | 199 to 201
94 | O=C(O)C1CCN(C(=O)c2cccnc2)CC1 | 188 to 190
95 | COCCNC(=O)C(C)Cl (stereo unspecified) | 28 to 30
96 | Nc1ccc(Oc2ccc(C(F)(F)F)cn2)c(F)c1 | 90 to 92
97 | CNC(CCO)c1ccccc1 (stereo unspecified) | 56 to 58
98 | NC(=O)c1ccc(N2CCCCC2)c(N)c1 | 168 to 170
99 | c1ccc2oc(-c3nn[nH]n3)cc2c1 | 212 to 214
100 | CC(C)C(=O)N1CCCC(C(=O)O)C1 (stereo unspecified) | 131 to 133
101 | NC(=O)NCCCC(=O)O | 171 to 173
102 | CC(Cl)C(=O)N1CCNC1=O (stereo unspecified) | 116 to 120
103 | O=C(NC1CC1)C(Cl)c1ccccc1 (stereo unspecified) | 128 to 130
104 | COc1ncc(Cl)c(Cl)n1 | 43 to 45
105 | Cc1cc(N2CCCC(N)C2=O)n(C)n1 (stereo unspecified) | 88 to 90

Row | Compound | melting point [°C]
106 | Cc1c(C(=O)O)cnn1CC(C)C | 109 to 111
107 | O=C1OCCc2cnc3ncnn3c21 | 271 to 273
108 | CC(=O)c1ccc(OC2CCCCC2)c(F)c1 | 48 to 50
109 | CC1(C)Cc2c(sc(N)c2C#N)C(C)(C)N1 | 197 to 199
110 | Nc1ncc(Br)cc1S(=O)(=O)Cl | 129 to 131
111 | Nc1nc(Br)ccc1O | 153 to 155
112 | CCC1CCCCC1NC(=O)c1ccnc(F)c1 (stereo unspecified) | 69 to 71
113 | CC(C)(C)OC(=O)NC(C(=O)O)C1CCCCC1 (stereo unspecified) | 163 to 165
114 | C=CC(=O)NC(=O)NC12CC3CC(CC(C3)C1)C2 | 211 to 213
115 | Cc1cccc(NC(=O)N2CCC(C(=O)O)CC2)c1 | 189 to 191
116 | N#Cc1c[nH]c2ccc(Br)cc2c1=O | 359 to 361
117 | Nc1nc2ccccc2n1CCCc1ccccc1 | 146 to 148
118 | CNc1ccc(C#N)cc1F | 76 to 78
119 | CC(C)OCc1ccccc1CNC(=O)CCl | 40 to 42
120 | CC(C)Cc1nc(N)sc1C(=O)O | 149 to 151
121 | O=C(O)c1ccccc1SCC(=O)N1CCCC1 | 115 to 117
122 | NNC(=S)NC1CCCC1 | 76 to 78
123 | Nc1nncc(-c2ccccc2OC(F)F)n1 | 159 to 161
124 | N#Cc1cc(C(=O)O)c[nH]1 | 229 to 231
125 | O=C1CSC(N2CCCCC2)=N1 | 76 to 80
126 | O=S(=O)(F)CC1CCOCC1 | 53 to 55

Row | Compound | melting point [°C]
127 | O=[N+]([O-])c1cc(F)c(F)cc1[N+](=O)[O-] | 80 to 82
128 | NNc1ccc(C(F)(F)F)nn1 | 132 to 134
129 | ClCc1nnc(-c2cccs2)o1 | 77 to 79
130 | Cc1ccc(C2CC2C(=O)O)s1 (stereo unspecified) | 45 to 47
131 | NNC(=O)Nc1ccc(Br)cc1 | 236 to 238
132 | O=C1COc2c(Cl)cccc21 | 108 to 110
133 | O=C(O)CCNC(=O)NC1CCCCC1 | 163 to 165
134 | Nc1ccccc1Cn1ccnc1 | 81 to 83
135 | CC(C)NC(=O)C(=O)NN | 158 to 160
136 | CC(C)(C)OC(=O)N1CCN2C(=O)NCC2C1 (stereo unspecified) | 218 to 220
137 | CSc1ncc(C(N)=O)c(N)n1 | 250 to 252
138 | CNC(=O)c1ccc(C)c(N)c1 | 167 to 169
139 | ClCc1csc(-c2ccsc2)n1 | 64 to 66
140 | COc1ccc(F)cc1C(C)N (stereo unspecified) | 74 to 76
141 | COc1ccc(Br)cc1C1NC(=O)NC1=O (stereo unspecified) | 209 to 211
142 | Cn1cc(S(=O)(=O)Cl)c([N+](=O)[O-])n1 | 70 to 72
143 | NNC(=O)CSc1ccccc1F | 131 to 133
144 | COc1nc(C)cc(Cl)n1 | 59 to 61
145 | CCOc1nc(Cl)ncc1Br | 72 to 74
146 | O=C1NCCN1c1ccccc1[N+](=O)[O-] | 153 to 155

Reference: a melting point compilation (Tetko et al.)
